What was measured:
Settings in all cases: 48 h
NOMO1 [1] = test: cell viability relative to DMSO control; higher = less cytotoxic
Summary of the method: (§1)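 Library compounds in DMSO were pin-dosed into 1536-well plates (5 μl) holding NOMO1 or SEM (500 cells/well) or P12-Ichikawa (1000 cells/well) leukemia cells, across an 11-point threefold series of 47 μM to 0.79 nM. Each cell line had been adapted for at least four passages in each medium. CellTiter-Glo One luminescence was read after 48 h at 37°C. Viability is the per-plate percentage relative to DMSO wells, with cell-free wells as background.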

P12-Ichikawa [2] = test: as above
Summary of the method: as §1

SEM cells [3] = test: as above
Summary of the method: as §1

NOMO1 [4] = test: AUC of viability dose-response curve (% viability x log10 dose units); higher = less sensitive
Summary of the method: (§2)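 Seeding of medium-adapted leukemia cells was at 500 or 1000 cells/well in 1536-well plates, followed by 48 h at 37°C with library compounds in DMSO at 11 threefold doses from 47 μM to 0.79 nM. CellTiter-Glo One luminescence was normalised per plate to DMSO and cell-free wells and fitted as a four-parameter log-logistic function of log10 dose. Area under the curve was integrated by trapezoidal rule, with curves exceeding full viability scaled and curves failing quality control removed.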

P12-Ichikawa [5] = test: as above
Summary of the method: as §2

SEM cells [6] = test: as above
Summary of the method: as §2

CCn1c(C(=O)N(C2CC2)C2CC2)cc2c3c(ncn3C)c(Nc3cc(C)n(C)n3)nc21
cell viability [%]
Settings	NOMO1 [1]	P12-Ichikawa [2]	SEM cells [3]
HPLM + 10% dialyzed FBS, 0.000781 µM	90.4	88.3	75.8
HPLM + 10% dialyzed FBS, 0.00234 µM	113	99.8	100
HPLM + 10% dialyzed FBS, 0.00702 µM	106	99.5	113
HPLM + 10% dialyzed FBS, 0.0211 µM	114	104	99.9
HPLM + 10% dialyzed FBS, 0.0632 µM	122	109	107
HPLM + 10% dialyzed FBS, 0.19 µM	115	117	101
HPLM + 10% dialyzed FBS, 0.569 µM	113	110	99.9
HPLM + 10% dialyzed FBS, 1.71 µM	105	108	106
HPLM + 10% dialyzed FBS, 5.12 µM	108	107	94.3
HPLM + 10% dialyzed FBS, 15.4 µM	119	107	78.8
HPLM + 10% dialyzed FBS, 46.1 µM	88.5	86.5	55.3
RPMI 5 mM glucose + 10% FBS, 0.000781 µM	86.7	92.7	71.3
RPMI 5 mM glucose + 10% FBS, 0.00234 µM	100	116	114
RPMI 5 mM glucose + 10% FBS, 0.00702 µM	93.9	108	119
RPMI 5 mM glucose + 10% FBS, 0.0211 µM	118	108	121
RPMI 5 mM glucose + 10% FBS, 0.0632 µM	117	118	119
RPMI 5 mM glucose + 10% FBS, 0.19 µM	103	107	123
RPMI 5 mM glucose + 10% FBS, 0.569 µM	114	111	110
RPMI 5 mM glucose + 10% FBS, 1.71 µM	102	110	106
RPMI 5 mM glucose + 10% FBS, 5.12 µM	102	105	93
RPMI 5 mM glucose + 10% FBS, 15.4 µM	111	112	91.3
RPMI 5 mM glucose + 10% FBS, 46.1 µM	84.4	91.7	26.7
RPMI 5 mM glucose + 10% dialyzed FBS, 0.000781 µM	84.1	90.4	75.7
RPMI 5 mM glucose + 10% dialyzed FBS, 0.00234 µM	104	100	109
RPMI 5 mM glucose + 10% dialyzed FBS, 0.00702 µM	105	97.6	117
RPMI 5 mM glucose + 10% dialyzed FBS, 0.0211 µM	94.7	96.4	107
RPMI 5 mM glucose + 10% dialyzed FBS, 0.0632 µM	116	102	104
RPMI 5 mM glucose + 10% dialyzed FBS, 0.19 µM	111	97.2	100
RPMI 5 mM glucose + 10% dialyzed FBS, 0.569 µM	115	98	102
RPMI 5 mM glucose + 10% dialyzed FBS, 1.71 µM	112	98.6	112
RPMI 5 mM glucose + 10% dialyzed FBS, 5.12 µM	110	102	82.8
RPMI 5 mM glucose + 10% dialyzed FBS, 15.4 µM	116	107	66.8
RPMI 5 mM glucose + 10% dialyzed FBS, 46.1 µM	98.6	87.6	34.1

AUC of viability dose-response curve
Settings	NOMO1 [4]	P12-Ichikawa [5]	SEM cells [6]
HPLM + 10% dialyzed FBS	472	466	454
RPMI 5 mM glucose + 10% FBS	473	473	446
RPMI 5 mM glucose + 10% dialyzed FBS	464	467	435

C=C1CCC2[C@](C)(CO)C(O)CC[C@]2(C)C1C/C=C1/C(=O)OCC1O (stereo partly drawn)
cell viability [%]
Settings	NOMO1 [1]	P12-Ichikawa [2]	SEM cells [3]
HPLM + 10% dialyzed FBS, 0.000781 µM	–	122	122
HPLM + 10% dialyzed FBS, 0.00234 µM	–	124	122
HPLM + 10% dialyzed FBS, 0.00702 µM	–	122	112
HPLM + 10% dialyzed FBS, 0.0211 µM	–	114	126
HPLM + 10% dialyzed FBS, 0.0632 µM	–	121	116
HPLM + 10% dialyzed FBS, 0.19 µM	–	117	111
HPLM + 10% dialyzed FBS, 0.569 µM	–	104	109
HPLM + 10% dialyzed FBS, 1.71 µM	–	103	105
HPLM + 10% dialyzed FBS, 5.12 µM	–	106	103
HPLM + 10% dialyzed FBS, 15.4 µM	–	114	117
HPLM + 10% dialyzed FBS, 46.1 µM	–	115	93.3
RPMI 5 mM glucose + 10% FBS, 0.000781 µM	111	115	125
RPMI 5 mM glucose + 10% FBS, 0.00234 µM	109	112	115
RPMI 5 mM glucose + 10% FBS, 0.00702 µM	115	118	118
RPMI 5 mM glucose + 10% FBS, 0.0211 µM	101	106	97.8
RPMI 5 mM glucose + 10% FBS, 0.0632 µM	114	114	108
RPMI 5 mM glucose + 10% FBS, 0.19 µM	113	110	99.2
RPMI 5 mM glucose + 10% FBS, 0.569 µM	99.3	108	88.3
RPMI 5 mM glucose + 10% FBS, 1.71 µM	105	109	87.1
RPMI 5 mM glucose + 10% FBS, 5.12 µM	97.5	107	81.5
RPMI 5 mM glucose + 10% FBS, 15.4 µM	104	98.6	84.8
RPMI 5 mM glucose + 10% FBS, 46.1 µM	98.4	107	85.6
RPMI 5 mM glucose + 10% dialyzed FBS, 0.000781 µM	121	120	129
RPMI 5 mM glucose + 10% dialyzed FBS, 0.00234 µM	104	115	120
RPMI 5 mM glucose + 10% dialyzed FBS, 0.00702 µM	114	124	121
RPMI 5 mM glucose + 10% dialyzed FBS, 0.0211 µM	110	115	115
RPMI 5 mM glucose + 10% dialyzed FBS, 0.0632 µM	118	116	113
RPMI 5 mM glucose + 10% dialyzed FBS, 0.19 µM	107	111	116
RPMI 5 mM glucose + 10% dialyzed FBS, 0.569 µM	105	109	109
RPMI 5 mM glucose + 10% dialyzed FBS, 1.71 µM	109	103	106
RPMI 5 mM glucose + 10% dialyzed FBS, 5.12 µM	95.5	98.7	109
RPMI 5 mM glucose + 10% dialyzed FBS, 15.4 µM	101	110	96.3
RPMI 5 mM glucose + 10% dialyzed FBS, 46.1 µM	96.9	106	92.3

AUC of viability dose-response curve
Settings	NOMO1 [4]	P12-Ichikawa [5]	SEM cells [6]
HPLM + 10% dialyzed FBS	395	454	439
RPMI 5 mM glucose + 10% FBS	459	457	383
RPMI 5 mM glucose + 10% dialyzed FBS	453	448	420

CN(C)C(=O)[C@H](O)[C@H](Cc1ccccc1)NC(=O)c1cc2cc(Cl)ccc2[nH]1
cell viability [%]
Settings	NOMO1 [1]	P12-Ichikawa [2]	SEM cells [3]
HPLM + 10% dialyzed FBS, 0.000781 µM	107	98.8	98.5
HPLM + 10% dialyzed FBS, 0.00234 µM	107	110	109
HPLM + 10% dialyzed FBS, 0.00702 µM	115	111	107
HPLM + 10% dialyzed FBS, 0.0211 µM	122	114	118
HPLM + 10% dialyzed FBS, 0.0632 µM	122	119	122
HPLM + 10% dialyzed FBS, 0.19 µM	132	115	119
HPLM + 10% dialyzed FBS, 0.569 µM	144	122	109
HPLM + 10% dialyzed FBS, 1.71 µM	145	127	86.1
HPLM + 10% dialyzed FBS, 5.12 µM	171	119	14
HPLM + 10% dialyzed FBS, 15.4 µM	145	80.3	11.2
HPLM + 10% dialyzed FBS, 46.1 µM	138	43.4	7.62
RPMI 5 mM glucose + 10% FBS, 0.000781 µM	111	95.3	95.8
RPMI 5 mM glucose + 10% FBS, 0.00234 µM	105	112	80.9
RPMI 5 mM glucose + 10% FBS, 0.00702 µM	103	109	81.7
RPMI 5 mM glucose + 10% FBS, 0.0211 µM	103	117	86.3
RPMI 5 mM glucose + 10% FBS, 0.0632 µM	124	119	108
RPMI 5 mM glucose + 10% FBS, 0.19 µM	126	130	94.6
RPMI 5 mM glucose + 10% FBS, 0.569 µM	127	130	104
RPMI 5 mM glucose + 10% FBS, 1.71 µM	109	130	81.2
RPMI 5 mM glucose + 10% FBS, 5.12 µM	123	113	14
RPMI 5 mM glucose + 10% FBS, 15.4 µM	121	68.6	8.95
RPMI 5 mM glucose + 10% FBS, 46.1 µM	112	51.5	6.87
RPMI 5 mM glucose + 10% dialyzed FBS, 0.000781 µM	83.9	99.5	85.2
RPMI 5 mM glucose + 10% dialyzed FBS, 0.00234 µM	109	118	108
RPMI 5 mM glucose + 10% dialyzed FBS, 0.00702 µM	109	118	105
RPMI 5 mM glucose + 10% dialyzed FBS, 0.0211 µM	109	119	100
RPMI 5 mM glucose + 10% dialyzed FBS, 0.0632 µM	113	121	111
RPMI 5 mM glucose + 10% dialyzed FBS, 0.19 µM	115	131	105
RPMI 5 mM glucose + 10% dialyzed FBS, 0.569 µM	132	125	105
RPMI 5 mM glucose + 10% dialyzed FBS, 1.71 µM	133	133	77.9
RPMI 5 mM glucose + 10% dialyzed FBS, 5.12 µM	118	127	18.8
RPMI 5 mM glucose + 10% dialyzed FBS, 15.4 µM	136	94	8.36
RPMI 5 mM glucose + 10% dialyzed FBS, 46.1 µM	126	70	6.18

AUC of viability dose-response curve
Settings	NOMO1 [4]	P12-Ichikawa [5]	SEM cells [6]
HPLM + 10% dialyzed FBS	418	448	359
RPMI 5 mM glucose + 10% FBS	456	442	340
RPMI 5 mM glucose + 10% dialyzed FBS	435	456	359

— the supplement of paper PMC11451515
